Data: PubChem BioAssay AID256 (DTP/NCI, 2004)
Several values for one entry are separate records, joined by “and”; a condition that tells them apart may be missing. Identical values can stand only once. Inconclusive results and toxic doses are left out.

Test system: CD2F1 mice, L1210 leukemia ip, survival T/C
Test: NCI In Vivo Anticancer Drug Screen. Data for tumor model L1210 Leukemia (intraperitoneal) in CD2F1 (CDF1) mice
Conditions: higher = longer survival
In short: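 Mice carrying a transplanted tumor received test compound or vehicle alone. The value is the measurement in the treated group divided by that in the vehicle-treated control group.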

[1] = endpoint: mean survival time, dose: 50.0 mg/kg/injection, schedule: Q01DX009 (ip), vehicle: saline
[2] = endpoint: mean survival time, dose: 100.0 mg/kg/injection, schedule: Q01DX009 (ip), vehicle: saline
[3] = endpoint: mean survival time, dose: 100.0 mg/kg/injection, schedule: Q04DX002 (ip), vehicle: saline with Tween-80
[4] = endpoint: mean survival time, dose: 200.0 mg/kg/injection, schedule: Q01DX009 (ip), vehicle: saline
[5] = endpoint: mean survival time, dose: 200.0 mg/kg/injection, schedule: Q04DX002 (ip), vehicle: saline with Tween-80
[6] = endpoint: mean survival time, dose: 400.0 mg/kg/injection, schedule: Q01DX009 (ip), vehicle: saline
[7] = endpoint: mean survival time, dose: 400.0 mg/kg/injection, schedule: Q04DX002 (ip), vehicle: saline with Tween-80
[8] = endpoint: mean survival time, dose: 100.0 mg/kg/injection, schedule: Q01DX009 (ip), vehicle: saline with Tween-80
[9] = endpoint: mean survival time, dose: 200.0 mg/kg/injection, schedule: Q01DX009 (ip), vehicle: saline with Tween-80
[10] = endpoint: mean survival time, dose: 400.0 mg/kg/injection, schedule: Q01DX009 (ip), vehicle: saline with Tween-80
[11] = endpoint: mean survival time, dose: 50.0 mg/kg/injection, schedule: Q04DX003 (ip), vehicle: saline with Tween-80
[12] = endpoint: mean survival time, dose: 100.0 mg/kg/injection, schedule: Q04DX003 (ip), vehicle: saline with Tween-80
[13] = endpoint: mean survival time, dose: 100.0 mg/kg/injection, schedule: Q04DX003 (ip), vehicle: saline
[14] = endpoint: mean survival time, dose: 400.0 mg/kg/injection, schedule: Q04DX003 (ip), vehicle: saline
[15] = endpoint: mean survival time, dose: 50.0 mg/kg/injection, schedule: Q01DX009 (ip), vehicle: saline with Tween-80
[16] = endpoint: mean survival time, dose: 100.0 mg/kg/injection, schedule: Q01DX001 (ip), vehicle: saline with Tween-80
[17] = endpoint: mean survival time, dose: 400.0 mg/kg/injection, schedule: Q01DX001 (ip), vehicle: saline with Tween-80

`N[C@@H](Cc1ccc(O)c(O)c1)C(=O)O` was tested, and the T/C (endpoint: mean survival time, dose: 25.0 mg/kg/injection, schedule: Q01DX009 (ip), vehicle: saline) was 98 % of control, the T/C [1] was 97 % of control and the T/C [2] was 96 % of control. The T/C [3] was 103 % of control, the T/C [4] was 103 % of control and the T/C [5] was 95 % of control. For the same molecule, the T/C [6] was 108 % of control, the T/C [7] was 98 % of control and the T/C (endpoint: mean survival time, dose: 800.0 mg/kg/injection, schedule: Q01DX009 (ip), vehicle: saline) was 119 % of control.

In the case of `O=C(CNC(=O)c1ccccc1)N/N=C/c1ccccc1O`, the T/C [8] is reported as 94 % of control, the T/C [9] is reported as 95 % of control and the T/C [10] is reported as 89 % of control.

`O=c1c2ncn(C3CC(O)C(O)C(CO)O3)c2ncn1C1CC(O)C(O)C(CO)O1` (centres undefined) was tested, and the T/C (endpoint: mean survival time, dose: 12.5 mg/kg/injection, schedule: Q01DX005 (ip), vehicle: water) was 108 % of control, the T/C (endpoint: mean survival time, dose: 25.0 mg/kg/injection, schedule: Q01DX005 (ip), vehicle: water) was 97 % of control and the T/C (endpoint: mean survival time, dose: 50.0 mg/kg/injection, schedule: Q01DX005 (ip), vehicle: water) was 100 % of control. The T/C (endpoint: mean survival time, dose: 100.0 mg/kg/injection, schedule: Q01DX005 (ip), vehicle: water) was 97 % of control and the T/C (endpoint: mean survival time, dose: 200.0 mg/kg/injection, schedule: Q01DX005 (ip), vehicle: water) was 97 % of control.

With `C[CH2][Ge]([CH2]C)[CH2]C.C[CH2][Ge]([CH2]C)[CH2]C` the T/C [11] was 104 % of control, the T/C [12] was 100 % of control and the T/C (endpoint: mean survival time, dose: 200.0 mg/kg/injection, schedule: Q04DX003 (ip), vehicle: saline with Tween-80) was 104 % of control.

For `Cc1ccc2c(C)nc(N=C(N)N)nc2c1`, the T/C (endpoint: mean survival time, dose: 18.8 mg/kg/injection, schedule: Q01DX009 (ip), vehicle: saline) was 103 % of control and the T/C (endpoint: mean survival time, dose: 37.5 mg/kg/injection, schedule: Q01DX009 (ip), vehicle: saline) was 96 % of control.

In the case of `CN(C)CC(=O)Nc1cc(Cl)ccc1Oc1ccc(Cl)cc1`, the T/C [8] is reported as 103 % of control, the T/C [9] is reported as 100 % of control and the T/C [10] is reported as 105 % of control.

With `CCCC/C=N/NC(=O)c1ccc[n+](C)c1` the T/C [13] was 102 % of control, the T/C (endpoint: mean survival time, dose: 200.0 mg/kg/injection, schedule: Q04DX003 (ip), vehicle: saline) was 98 % of control and the T/C [14] was 105 % of control.

With `C[C@]12CCC(=O)C=C1CC[C@@H]1[C@@H]2[C@@H](O)C[C@@]2(C)[C@H]1CC[C@]2(O)C(=O)COC(=O)COCC(=O)O` the T/C (endpoint: mean survival time, dose: 100.0 mg/kg/injection, schedule: Q01DX001 (sc), vehicle: steriod suspending solution) was 106 % of control, the T/C (endpoint: mean survival time, dose: 200.0 mg/kg/injection, schedule: Q01DX001 (sc), vehicle: steriod suspending solution) was 108 % of control and the T/C (endpoint: mean survival time, dose: 400.0 mg/kg/injection, schedule: Q01DX001 (sc), vehicle: steriod suspending solution) was 103 % of control.

For `Cc1ccc(S(=O)(=O)N/N=C\c2cccnc2)cc1`, the T/C (endpoint: mean survival time, dose: 12.5 mg/kg/injection, schedule: Q04DX003 (ip), vehicle: other) was 101 % of control, the T/C (endpoint: mean survival time, dose: 25.0 mg/kg/injection, schedule: Q04DX003 (ip), vehicle: other) was 101 % of control and the T/C (endpoint: mean survival time, dose: 50.0 mg/kg/injection, schedule: Q04DX003 (ip), vehicle: other) was 97 % of control. For the same molecule, the T/C (endpoint: mean survival time, dose: 100.0 mg/kg/injection, schedule: Q04DX003 (ip), vehicle: other) was 101 % of control, the T/C (endpoint: mean survival time, dose: 200.0 mg/kg/injection, schedule: Q04DX003 (ip), vehicle: other) was 97 % of control and the T/C (endpoint: mean survival time, dose: 400.0 mg/kg/injection, schedule: Q04DX003 (ip), vehicle: other) was 98 % of control.

`Oc1ccc(Nc2c3ccccc3nc3c2ccc2ccccc23)cc1CN(CCCl)CCCl` was tested, and the T/C (endpoint: mean survival time, dose: 6.25 mg/kg/injection, schedule: Q01DX009 (ip), vehicle: saline) was 91 % of control.

With `CCCS(=O)(=O)CS(=O)(=O)CC` the T/C (endpoint: mean survival time, dose: 75.0 mg/kg/injection, schedule: Q01DX001 (ip), vehicle: saline with Tween-80) was 100 % of control, the T/C (endpoint: mean survival time, dose: 150.0 mg/kg/injection, schedule: Q01DX001 (ip), vehicle: saline with Tween-80) was 92 % of control and the T/C (endpoint: mean survival time, dose: 300.0 mg/kg/injection, schedule: Q01DX001 (ip), vehicle: saline with Tween-80) was 90 % of control.

In the case of `CC(C)OC(=O)Nc1ncn[nH]1`, the T/C [3] is reported as 104 % of control, the T/C [5] is reported as 108 % of control and the T/C [7] is reported as 93 % of control.

In the case of `NCCCCS(=O)(=O)Nc1ccc(Nc2c3ccccc3nc3cc([N+](=O)[O-])ccc23)cc1`, the T/C [15] is reported as 158 % of control, the T/C [8] is reported as 172 % of control and the T/C [12] is reported as 157 % of control. For the same molecule, the T/C (endpoint: mean survival time, dose: 300.0 mg/kg/injection, schedule: Q04DX003 (ip), vehicle: saline with Tween-80) was 159 % of control and the T/C [14] was 151 % of control.

In the case of `CCOCCN=C(N)C(N)=NCCOCC`, the T/C (endpoint: mean survival time, dose: 50.0 mg/kg/injection, schedule: Q04DX002 (ip), vehicle: saline with Tween-80) is reported as 102 % of control, the T/C [3] is reported as 98 % of control and the T/C [5] is reported as 94 % of control. The T/C [7] was 94 % of control.

For `Nc1ncn(C2OC(COC(=O)c3ccccc3)C(OC(=O)c3ccccc3)C2OC(=O)c2ccccc2)n1` (centres undefined), the T/C (endpoint: median survival time, dose: 8.75 mg/kg/injection, schedule: Q01DX005 (ip), vehicle: distilled water + Tween-80) was 94 % of control, the T/C (endpoint: median survival time, dose: 17.5 mg/kg/injection, schedule: Q01DX005 (ip), vehicle: distilled water + Tween-80) was 91 % of control and the T/C (endpoint: median survival time, dose: 35.0 mg/kg/injection, schedule: Q01DX005 (ip), vehicle: distilled water + Tween-80) was 91 % of control. The T/C (endpoint: median survival time, dose: 70.0 mg/kg/injection, schedule: Q01DX005 (ip), vehicle: distilled water + Tween-80) was 95 % of control and the T/C (endpoint: median survival time, dose: 140.0 mg/kg/injection, schedule: Q01DX005 (ip), vehicle: distilled water + Tween-80) was 91 % of control.

With `NC(=O)C[P+](c1ccccc1)(c1ccccc1)c1ccccc1` the T/C (endpoint: mean survival time, dose: 25.0 mg/kg/injection, schedule: Q04DX003 (ip), vehicle: saline with Tween-80) was 109 % of control, the T/C [11] was 114 % of control and the T/C [12] was 102 % of control and 105 % of control.

`O=C1Nc2ccc3c4c(ccc1c24)CC3` was tested, and the T/C [16] was 105 % of control and the T/C [17] was 94 % of control.

In the case of `CC(=O)NNC(=O)c1ccccc1N=NN(C)C`, the T/C (endpoint: mean survival time, dose: 18.75 mg/kg/injection, schedule: Q01DX009 (ip), vehicle: Klucel (hydroxypropylcellulose) (HPC)) is reported as 94 % of control and 100 % of control, the T/C (endpoint: mean survival time, dose: 37.5 mg/kg/injection, schedule: Q01DX009 (ip), vehicle: Klucel (hydroxypropylcellulose) (HPC)) is reported as 102 % of control and 111 % of control and the T/C (endpoint: mean survival time, dose: 75.0 mg/kg/injection, schedule: Q01DX009 (ip), vehicle: Klucel (hydroxypropylcellulose) (HPC)) is reported as 109 % of control. For the same molecule, the T/C (endpoint: mean survival time, dose: 150.0 mg/kg/injection, schedule: Q01DX009 (ip), vehicle: Klucel (hydroxypropylcellulose) (HPC)) was 105 % of control and 111 % of control.

`CCCCOc1ccc(NC(=O)CCl)cc1` was tested, and the T/C (endpoint: mean survival time, dose: 25.0 mg/kg/injection, schedule: Q01DX009 (ip), vehicle: saline with Tween-80) was 96 % of control, the T/C (endpoint: mean survival time, dose: 25.0 mg/kg/injection, schedule: Q04DX003 (ip), vehicle: saline) was 95 % of control and the T/C [15] was 96 % of control. The T/C (endpoint: mean survival time, dose: 50.0 mg/kg/injection, schedule: Q04DX003 (ip), vehicle: saline) was 101 % of control and the T/C [13] was 94 % of control.

With `COCc1c(C)c(C)c(COC)c(C)c1C` the T/C [1] was 95 % of control, the T/C [2] was 97 % of control and the T/C [4] was 88 % of control.

For `CCOc1cccc(Cc2c[nH]c(=O)[nH]c2=O)c1`, the T/C [16] was 90 % of control, the T/C (endpoint: mean survival time, dose: 200.0 mg/kg/injection, schedule: Q01DX001 (ip), vehicle: saline with Tween-80) was 100 % of control and the T/C [17] was 89 % of control.

In the case of `COC(=O)C1OC([n+]2ccccc2)C(OC(C)=O)C(OC(C)=O)C1OC(C)=O` (centres undefined), the T/C (endpoint: median survival time, dose: 12.5 mg/kg/injection, schedule: Q01DX005 (ip), vehicle: saline) is reported as 103 % of control, the T/C (endpoint: median survival time, dose: 25.0 mg/kg/injection, schedule: Q01DX005 (ip), vehicle: saline) is reported as 107 % of control and the T/C (endpoint: median survival time, dose: 50.0 mg/kg/injection, schedule: Q01DX005 (ip), vehicle: saline) is reported as 100 % of control. The T/C (endpoint: median survival time, dose: 100.0 mg/kg/injection, schedule: Q01DX005 (ip), vehicle: saline) was 107 % of control and the T/C (endpoint: median survival time, dose: 200.0 mg/kg/injection, schedule: Q01DX005 (ip), vehicle: saline) was 103 % of control.

In the case of `CCCC(O)C(C)[N+](=O)[O-]` (centres undefined), the T/C [2] is reported as 96 % of control, the T/C [4] is reported as 106 % of control and the T/C [6] is reported as 96 % of control.

In the case of `CC(O)(c1ccccc1)c1ccccc1`, the T/C [8] is reported as 104 % of control, the T/C [9] is reported as 102 % of control and the T/C [10] is reported as 96 % of control.

With `CNC/C(C)=C/Cl` the T/C (endpoint: mean survival time, dose: 50.0 mg/kg/injection, schedule: Q01DX009 (ip), vehicle: acetone) was 96 % of control and the T/C (endpoint: mean survival time, dose: 100.0 mg/kg/injection, schedule: Q01DX009 (ip), vehicle: acetone) was 90 % of control.

With `CCCC/C=C/C(C)(C)O` the T/C [15] was 107 % of control, the T/C [8] was 103 % of control and the T/C [9] was 107 % of control.
